Laboratory results published in article PMC6273373, “Elucidation of Transport Mechanism of Paeoniflorin and the Influence of Ligustilide, Senkyunolide I and Senkyunolide A on Paeoniflorin Transport through Mdck-Mdr1 Cells as Blood–Brain Barrier in Vitro Model” (Molecules, 2016).

Experiments:
[1] = test system: MDCK-MDR1 cell monolayers; test: Transport of PF across MDCK-MDR1 cell monolayers (BBB in vitro model), LC-MS/MS; format: in vitro ADME, canine
Method: (§1) Cell monolayers were pre-incubated in Hank's buffered salt solution (HBSS, pH 7.4) for 30 min at 37 °C. Transepithelial electrical resistance (TEER) values were measured across the monolayers using a Millipore Millicell ERS system equipped with chopstick electrodes (Millipore Corporation, Billerica, MA, USA). […] To measure apical (A)→basolateral (B) transporter, 0.5 mL of drug solution was added in A side and 1.5 mL of HBSS in B side. Basolateral (B)→apical (A) transporter was evaluated adding 1.5 mL of drug solution in B side and 0.5 mL of HBSS in A side. […] Each measurement was evaluated in triplicate. Cells were incubated in a 37 °C shaking incubator. […] The supernatants were transferred to autosampler vials and injected into the LC-MS system. An HPLC system consisting of a solvent-delivery system […], an autosampler SIL-30 AC, a column oven CTO-30 AC, a solvent degasser DGU-20A3 and a controller CBM-20A from […] was used in the study. Separation was conducted using a Phenomenex Kinetex NB-C18 (100 × 3.0 mm, 2.6 μm, Torrance, CA, USA). The column oven was maintained at 30 °C. The mobile phase was water as mobile phase A and acetonitrile as mobile phase B. […] The injection volume was set at 5 μL. The MS analysis was performed on a 4500 QTRAPTM system from Applied Biosystems (AB Sciex) equipped with Turbo V sources and Turbo IonsprayTM interface. Electrospray ionization was performed in negative mode. The mass spectrometric parameters were optimized as: Turbo Ion Spray (TIS) temperature, 650 °C; ion spray voltage, -4500 V; curtain gas, nitrogen, 30; nebulizing gas, 50; TIS gas, 50; declustering potential, -130 eV for PF, 0 eV for internal standard (IS, gastrodin); collision energy, -30 eV for PF, -35 eV for IS. […] Analyst SoftwareTM (version 1.6.1) was used to process the obtained data. […] The efflux ratio (ER) was calculated according to the following Equation (4): (4) […]→BL

MDCK-MDR1 monolayers = test: Transepithelial electrical resistance (TEER) before and after permeation; format: cell-based, canine; details: after versus before permeation
Method: Cell monolayers were pre-incubated in Hank’s buffered salt solution (HBSS, pH 7.4) for 30 min at 37 °C. Transepithelial electrical resistance (TEER) values were measured across the monolayers using a Millipore Millicell ERS system equipped with chopstick electrodes (Millipore Corporation, Billerica, MA, USA). Approximate MDCK-MDR1 values ranged from 500 to 800 Ω·cm^2. To measure apical (A)→basolateral (B) transporter, 0.5 mL of drug solution was added in A side and 1.5 mL of HBSS in B side. Basolateral (B)→apical (A) transporter was evaluated adding 1.5 mL of drug solution in B side and 0.5 mL of HBSS in A side. […] Transepithelial electrical resistance (TEER) of the monolayers was measured with the EVOM instrument (Millipore Corporation). The TEER of untreated cells and cells treated with LIG, SENI and SENA was determined in HBSS before and after the experiment. The measured TEER before the experiment was set as 100% and all other values were calculated according to this.

P-gp [2] = test: Western blot of P-gp expression in MDCK-MDR1 cells; format: cell-based, canine; details: 8 hours
Method: Cells treated with different concentrations of LIG, SENA and SENI for 8 hours were subject to Western blot assay. Proteins were extracted from whole cell lysates and separated by sodium dodecyl sulfate–polyacrylamide gel electrophoresis, then transferred to a polyvinylidene fluoride (PVDF) membrane. The following primary antibodies were used: rabbit anti-P-gp (1:1000; Abcam, Cambridge, MA, USA) and mouse anti-β-actin (1:2000; Abcam). Membranes were then incubated with the horseradish peroxidase-conjugated secondary anti-bodies (1:5000; Abcam). The transferred proteins were incubated with enhanced chemiluminescence (ECL) substrate solution and visualized with the Image J program (Bio-Rad, Richmond, CA, USA). The relative levels were quantified densitometrically by using the Quantity One software (Bio-Rad Laboratories) and calculated according to the reference bands of β-actin.

[3] = Transport of PF across MDCK-MDR1 cell monolayers (BBB in vitro model), LC-MS/MS; format: in vitro ADME, canine; details: dog
Method: as §1

P-gp (MDR1) = test: as above; format: in vitro ADME, canine; details: dog, MDCK-MDR1, pH 7.4
Method: as §1

P-gp [4] = test: as above; format: in vitro ADME, canine; details: dog, MDCK-MDR1, pH 7.4, 400 μg/mL PF + verapamil (P-gp inhibitor), mean ± SD (n = 3)
Method: as §1

[5] = enhancer 20 µg/mL with 400 µg/mL PF, versus PF alone
[6] = enhancer 40 µg/mL with 400 µg/mL PF, versus PF alone
[7] = enhancer 80 µg/mL with 400 µg/mL PF, versus PF alone

## CCCCC1OC(=O)C2=C1CCC=C2 (stereo not shown) [SENA, senkyunolide A]
[1]; [5]
  Effect on A→B transport (Papp/flux) of PF: significantly increased
[1]; [6]
  Effect on A→B transport (Papp/flux) of PF: significantly increased
[1]; enhancer 80 µg/mL with 400 µg/mL PF, A→B, versus PF alone
  Increase of the transport of PF: approximately 109%
[1]; [7]
  Effect on A→B transport (Papp/flux) of PF: significantly increased
MDCK-MDR1 monolayers; 20 μg/mL with 400 μg/mL PF
  TEER change during permeation studies: markedly decreased
MDCK-MDR1 monolayers; 40 μg/mL with 400 μg/mL PF
  TEER change during permeation studies: markedly decreased
MDCK-MDR1 monolayers; 80 μg/mL with 400 μg/mL PF
  TEER change during permeation studies: significantly decreased
P-gp [2]; 20 μg/mL
  P-gp expression versus control group: significantly down-regulated
P-gp [2]; 40 μg/mL
  P-gp expression versus control group: markedly down-regulated
P-gp [2]; 80 μg/mL
  P-gp expression versus control group: markedly down-regulated

## C[C@@]12C[C@@]3(O)O[C@@H](O1)[C@]1(COC(=O)c4ccccc4)[C@H]3C[C@@]12O[C@@H]1O[C@H](CO)[C@@H](O)[C@H](O)[C@H]1O [PF, paeoniflorin]
[3]; MDCK-MDR1, pH 7.4, 400 μg/mL PF + 2.5 mmol/L EDTA-Na2, mean ± SD (n = 3)
  Papp A→B at 150 min, 400 μg/mL: 2.74 ± 0.212 ×10⁻⁶ cm/s
[3]; MDCK-MDR1, pH 7.4, PF 100 μg/mL, MDCK-MDR1 monolayers, mean ± SD (n = 3)
  Papp A→B at 150 min, 100 μg/mL: 0.697 ± 0.053 ×10⁻⁶ cm/s
[3]; MDCK-MDR1, pH 7.4, PF 200 μg/mL, MDCK-MDR1 monolayers, mean ± SD (n = 3)
  Papp A→B at 150 min, 200 μg/mL: 0.691 ± 0.082 ×10⁻⁶ cm/s
[3]; MDCK-MDR1, pH 7.4, PF 400 μg/mL, MDCK-MDR1 monolayers, mean ± SD (n = 3)
  Papp A→B at 150 min, 400 μg/mL: 0.587 ± 0.088 ×10⁻⁶ cm/s
[3]; MDCK-MDR1, pH 7.4, PF 600 μg/mL, MDCK-MDR1 monolayers, mean ± SD (n = 3)
  Papp A→B at 150 min, 600 μg/mL: 0.666 ± 0.072 ×10⁻⁶ cm/s
[3]; MDCK-MDR1, pH 7.4, PF 800 μg/mL, MDCK-MDR1 monolayers, mean ± SD (n = 3)
  Papp A→B at 150 min, 800 μg/mL: 0.705 ± 0.107 ×10⁻⁶ cm/s
[3]; MDCK-MDR1, pH 7.4, PF 100-800 μg/mL, MDCK-MDR1 cells, read-out: Papp (A→B), range over tested concentrations
  Papp A→B at 150 min: 0.587 to 0.705 ×10⁻⁶ cm/s
[3]; pH 7.4, PF 100 μg/mL, MDCK-MDR1 monolayers, mean ± SD (n = 3)
  Papp B→A at 150 min, 100 μg/mL: 1.55 ± 0.092 ×10⁻⁶ cm/s
[3]; pH 7.4, PF 200 μg/mL, MDCK-MDR1 monolayers, mean ± SD (n = 3)
  Papp B→A at 150 min, 200 μg/mL: 1.48 ± 0.363 ×10⁻⁶ cm/s
[3]; pH 7.4, PF 400 μg/mL, MDCK-MDR1 monolayers, mean ± SD (n = 3)
  Papp B→A at 150 min, 400 μg/mL: 1.3 ± 0.084 ×10⁻⁶ cm/s
[3]; pH 7.4, PF 600 μg/mL, MDCK-MDR1 monolayers, mean ± SD (n = 3)
  Papp B→A at 150 min, 600 μg/mL: 1.44 ± 0.201 ×10⁻⁶ cm/s
[3]; pH 7.4, PF 800 μg/mL, MDCK-MDR1 monolayers, mean ± SD (n = 3)
  Papp B→A at 150 min, 800 μg/mL: 1.42 ± 0.097 ×10⁻⁶ cm/s
[1]; 400 μg/mL PF with 2.5 mmol/L EDTA-Na2
  Increase of Papp (A→B) of PF in comparison with the non-EDTA-Na2 added: about five
[1]; 400 μg/mL PF with verapamil
  Increase of Papp (A→B) of PF in comparison with the non-verapamil added: about 1.2 fold
[1]; PF 600 μg/mL, MDCK-MDR1 monolayers
  ER (B→A/A→B): 2.156
[1]; PF, all tested concentrations, MDCK-MDR1 cells
  B→A/A→B permeability ER: more than 2
P-gp (MDR1)
  efflux ratio at 150 min, 100 μg/mL: 2.22
  efflux ratio at 150 min, 200 μg/mL: 2.13
  efflux ratio at 150 min, 400 μg/mL: 2.21
  efflux ratio at 150 min, 800 μg/mL: 2.01
P-gp [4]
  Papp A→B at 150 min, 400 μg/mL: 0.707 ± 0.062 ×10⁻⁶ cm/s

## CCC/C=C1\OC(=O)C2=C1CC[C@H](O)[C@H]2O [SENI, senkyunolide I]
[1]; [5]
  Effect on A→B transport (Papp/flux) of PF: significantly increased
[1]; [6]
  Effect on A→B transport (Papp/flux) of PF: significantly increased
[1]; [7]
  Effect on A→B transport (Papp/flux) of PF: significantly increased
MDCK-MDR1 monolayers; 80 μg/mL with 400 μg/mL PF
  TEER change during permeation studies: markedly decreased
P-gp [2]; 20 μg/mL
  P-gp expression versus control group: markedly down-regulated
P-gp [2]; 40 μg/mL
  P-gp expression versus control group: markedly down-regulated
P-gp [2]; 80 μg/mL
  P-gp expression versus control group: markedly down-regulated

## CCC/C=C1\OC(=O)C2=C1CCC=C2 [LIG, ligustilide]
[1]; [6]
  Effect on A→B transport (Papp/flux) of PF: significantly increased
[1]; [7]
  Effect on A→B transport (Papp/flux) of PF: significantly increased
MDCK-MDR1 monolayers; 20 μg/mL with 400 μg/mL PF
  TEER change during permeation studies: significantly decreased
MDCK-MDR1 monolayers; 40 μg/mL with 400 μg/mL PF
  TEER change during permeation studies: markedly decreased
MDCK-MDR1 monolayers; 80 μg/mL with 400 μg/mL PF
  TEER change during permeation studies: markedly decreased
P-gp [2]; 20 μg/mL
  P-gp expression versus control group: significantly down-regulated
P-gp [2]; 40 μg/mL
  P-gp expression versus control group: markedly down-regulated
P-gp [2]; 80 μg/mL
  P-gp expression versus control group: markedly down-regulated
